Source: US20260193254A1, “2-OXOQUINAZOLINE CRYSTALLINE FORMS” (IDEAYA Biosciences, Inc., priority 2022, published 2026)
Values after ≈ are worked out from the molar mass of the structure shown.

What was measured:
Assay type in all cases: physicochemical
[1] = Equilibrium solubility in FeSSIF and FaSSIF; settings: for solubility at 24 h: 37 °C, thermodynamic from solid, target concentration 1 mg/mL, HPLC method 1 or 2 (footnote); for impurity in solubility sample: no unit printed for impurity (column head mg/mL)
Description: (§1) Solid part and liquid part were separated by filtration. Solubility was measured by HPLC. Solid part (wet cake) was investigated by XRPD.

[2] = Hygroscopicity: water sorption and desorption by dynamic vapor sorption (DVS)
Description: In some embodiments, the crystalline form described herein is further characterized by is further characterized by a dynamic vapor sorption (DVS) profile. In some embodiments, a DVS is recorded according to the method as described herein with a cycle of 40-0-95-0-40% RH at 25° C.
Water sorption and desorption behaviors of Form A, Form C, Form D, and Form T were investigated by DVS at 25° C. with a cycle of 40-0-95-0-40% RH. Dm/dt was 0.002. Minimum equilibration time was 60 min. Maximum equilibration time was 360 min. XRPD was measured after DVS test to determine potential form change.

[3] = Bulk stability of crystalline forms; parameters: key: Color A: All No change of color; settings: Solid state
Excerpt: (§2) Solids obtained after bulk stability study were characterized by XRPD and HPLC.

[4] = Equilibrium solubility in SGF (pH 2.0), 0.1 N HCl (pH 1.2) and phosphate buffer (pH 8.0); settings: for Solubility: target concentration 1 mg/mL, HPLC method 2
Description: as §1

[5] = Competitive equilibration experiments; settings: 25° C. and 50° C.
Description: These solvents were saturated with the compound of Formula (I) before addition of the polymorph seeds. Obtained suspension was stirred at 25° C. or 50° C. for 5 days. Solid part (wet cake) was isolated by filtration and investigated by XRPD.

Water activity study = settings: acetonitrile/water system, 5° C. and 25° C.
Excerpt: These solvent mixtures were saturated with the compound of Formula (I) before addition of the polymorph seeds. […] These solvent mixtures were saturated with the compound of Formula (I) before addition of the polymorph seeds. Obtained suspension was filtered. Solid part (wet cake) was investigated by XRPD.

[6] = Variable humidity and temperature XRPD experiments
[7] = Bulk stability of crystalline forms; settings: for Purity, Bulk (HPLC): Solid state
Excerpt: as §2

[8] = Intrinsic dissolution rate (IDR) evaluation in FaSSIF; settings: FaSSIF at 37° C.
Description: Only one surface of the pellet was exposed (surface area=0.50 cm^2) to 900 mL FaSSIF, the dissolution medium. Temperature of chamber medium was set as 37±0.5° C. Shaft rotation as 100 rpm and sampling time points as 2 min, 5 min, 10 min, 15 min, 20 min, 25 min, 30 min, 35 min, 40 min, 50 min, 60 min, and 120 min. 2 mL sample solution was withdrawn at each time point and centrifuged at 14,000 rpm for 5 min to isolate supernatant. Then concentration of the supernatant was analyzed by HPLC. After 120 min, XRPD of disc surface was measured.

[9] = FaSSIF, pH 6.5, 37° C., 24 hours
[10] = FeSSIF, pH 5.0, 37° C., 24 hours
[11] = 25° C./92% RH, open container, 1 week
[12] = 25° C./92% RH, open container, 2 weeks
[13] = 40° C./75% RH, open container, 1 week
[14] = 40° C./75% RH, open container, 2 weeks
[15] = 60° C., tight container, 1 week
[16] = 60° C., tight container, 2 weeks
[17] = pH 1.2 (0.1N HCl), 37° C., 24 hours
[18] = pH 8 (phosphate buffer), 37° C., 24 hours

Nc1nc(=O)n(-c2ccccc2Cl)c2nc(C(F)(F)F)ccc12 [Form A, 4-Amino-1-(2-chlorophenyl)-7-(trifluoromethyl)pyrido[2,3-d]pyrimidin-2(1H)-one]
solubility at 24 h ([1]; FaSSIF, pH 6.5, fassif, pH 6.5, 37° C.): 90 µg/mL (≈ 264 µM) | XRPD of solid after solubility test [1, 9]: Form A + NaCl | final pH [1, 9]: 6.5 | impurity in solubility sample [1, 9]: no impurity | solubility at 24 h ([1]; FeSSIF, pH 5, fessif, pH 5.0, 37° C.): 240 µg/mL (≈ 704 µM) | final pH [1, 10]: 5.0 | impurity in solubility sample [1, 10]: no impurity | hygroscopicity ([2]; DVS at 25° C., cycle 40-0-95-0-40% RH): slightly hygroscopic | water uptake ([2]; DVS, in 95% RH at 25° C.): 0.7% | form change after the DVS test ([2]; XRPD after DVS): No form change | Color [3, 11]: A | Color [3, 12]: A | Color [3, 13]: A | Color [3, 14]: A | Color [3, 15]: A | Color [3, 16]: A | form obtained from the solubility study in 0.1 N HCl solution ([4]; 0.1 N HCl): Form R | XRPD pattern after the solubility test in 0.1 N HCl and SGF ([4]; 37° C., 24 hours): two new patterns were obtained | form obtained from the solubility study in simulated gastric fluid ([4]; SGF, pH 2.0): Form Q | XRPD of solid after solubility test ([4]; SGF, pH 2.0, 37° C., 24 hours): Form Q | final pH ([4]; SGF, pH 2.0, 37° C., 24 hours): 2.2 | Solubility ([4]; SGF, pH 2.0, 37° C., 24 hours): 60 µg/mL (≈ 176 µM) | XRPD of solid after solubility test [4, 17]: Form R | final pH [4, 17]: 1.3 | Solubility [4, 17]: 100 µg/mL (≈ 294 µM) | XRPD of solid after solubility test [4, 18]: Form A | final pH [4, 18]: 8.0 | impurity in solubility sample [4, 18]: no impurity | Solubility [4, 18]: 30 µg/mL (≈ 88.1 µM) | form obtained in competitive equilibration experiments (relative stability of Form A and Form I) [5]: Form A were obtained from all the experiments | form obtained in water activity experiments (relative stability of Forms A, C, D and E) (Water activity study): highly crystalline Form A was obtained in all the solvent mixtures | XRPD (XRPD method 2) ([6]; VT14 25° C./37% RH (initial)): Form A | XRPD (XRPD method 2) ([6]; VT15 50° C./37% RH (10 min)): Form A | XRPD (XRPD method 2) ([6]; VT17 250° C./37% RH (10 min)): Form U | Purity, Bulk (HPLC) [7, 11]: 99.0% | Purity, Bulk (HPLC) [7, 12]: 99.2% | Purity, Bulk (HPLC) [7, 13]: 99.0% | Purity, Bulk (HPLC) [7, 14]: 99.1% | Purity, Bulk (HPLC) [7, 15]: 99.1% | Purity, Bulk (HPLC) [7, 16]: 99.2% | Initial purity ([7]; before stress, HPLC): 99.0% | chemical stability and physical stability (bulk stability) ([7]; stressed under 25° C./92 RH, 40% C/75% RH and 60° C., XRPD and HPLC): good chemical stability and physical stability | XRPD after IDR ([8]; disc surface after 120 min): No form change | Concentration detected during IDR test (Comments) ([8]; for Form V and Form A remains same during the whole process, LOQ for Form T and amorphous form): (0.006 mg/mL)
